Assay results: patent US5753617A, “Peptide inhibitors of cellular adhesion” (Centocor, Inc., priority 1995, dated 1998)
Read-outs that look alike come from different tables or passages of the source. Where a SMILES comes first, the peptide text is derived from it. Bridges are numbered along the chain shown (N, C = ends). [ ]: non-standard residue; d: D form.

Tests used:
[1] = disulfide bond, water
P-selectin = molecular target: T1, P-selectin (Homo sapiens, UniProt P16109); experiment: Inhibition of human neutrophil adhesion to purified P-selectin immobilized on plastic wells; format: cell-based; conditions: inhibiting the binding of human neutrophils to P-selectin
T1 construct: P-selectin is isolated from human platelet lysates; from tissue; host or cells: human platelets (outdated platelet packs from a blood bank)
T1 sequence (P16109 42-830): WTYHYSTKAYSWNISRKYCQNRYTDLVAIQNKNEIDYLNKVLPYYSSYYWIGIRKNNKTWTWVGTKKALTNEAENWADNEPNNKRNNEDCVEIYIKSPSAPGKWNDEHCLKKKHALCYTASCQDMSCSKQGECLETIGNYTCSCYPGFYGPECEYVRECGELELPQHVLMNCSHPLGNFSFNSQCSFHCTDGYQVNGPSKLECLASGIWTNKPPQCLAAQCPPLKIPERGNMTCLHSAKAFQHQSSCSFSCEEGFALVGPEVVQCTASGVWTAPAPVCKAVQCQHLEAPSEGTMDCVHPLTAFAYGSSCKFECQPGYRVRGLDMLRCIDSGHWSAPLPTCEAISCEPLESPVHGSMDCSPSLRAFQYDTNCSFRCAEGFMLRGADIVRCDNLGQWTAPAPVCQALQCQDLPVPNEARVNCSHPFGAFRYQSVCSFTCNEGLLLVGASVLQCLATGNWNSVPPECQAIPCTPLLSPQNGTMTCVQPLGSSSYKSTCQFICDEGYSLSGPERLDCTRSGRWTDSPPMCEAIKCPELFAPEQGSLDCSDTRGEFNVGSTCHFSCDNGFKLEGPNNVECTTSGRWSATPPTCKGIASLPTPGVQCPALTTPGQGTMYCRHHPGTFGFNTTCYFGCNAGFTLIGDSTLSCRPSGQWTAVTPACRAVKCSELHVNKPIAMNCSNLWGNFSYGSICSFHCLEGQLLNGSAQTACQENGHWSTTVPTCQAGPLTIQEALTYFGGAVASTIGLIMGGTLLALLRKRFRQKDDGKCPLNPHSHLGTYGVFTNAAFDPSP
Outline: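 Isolated human neutrophils (2×10^5 per well) in HBSS with Ca2+/Mg2+ and HSA added to wells coated overnight at 4° C with platelet-derived P-selectin (5 micrograms/mL), HSA-blocked; 20 min at 22° C. Nonadherent cells removed by inverted centrifugation at 150 g; adherent cells quantified by myeloperoxidase activity.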

SMILES: CC(C)[C@@H](NC(=O)[C@@H](Cc1c[nH]c2ccccc12)NC(=O)[C@H](NC(=O)[C@@H](Cc1c[nH]c2ccccc12)NC(=O)[C@H]1CSSC[C@@H](NC(=O)[C@@H](CCCCN)NC(=O)[C@H](N)CCCNC(=N)N)C(=O)NCC(=O)N[C@@H](CC(N)=O)C(=O)N1)[C@H](C)O)C(N)=O [(41)] (H-[dR][dK][dC]GN[dC][dW][dT][dW][dV]-NH2; disulfide 3-6)
- ring closure, yield of all isomers ([1]; from CC(C)[C@@H](NC(=O)[C@@H](Cc1c[nH]c2ccccc12)NC(=O)[C@H](NC(=O)[C@@H](Cc1c[nH]c2ccccc12)NC(=O)[C@@H](CS)NC(=O)[C@H](CC(N)=O)NC(=O)CNC(=O)[C@@H](CS)NC(=O)[C@@H](CCCCN)NC(=O)[C@H](N)CCCNC(=N)N)[C@H](C)O)C(N)=O, Cu wire, dilute NH4OH (printed NH2OH), pH 8, 3.2 mM, 20.0 h): 6%
- IC50 (P-selectin): 26.2 µM

SMILES: CC(C)[C@@H](NC(=O)[C@@H](Cc1c[nH]c2ccccc12)NC(=O)[C@H](NC(=O)[C@@H](Cc1c[nH]c2ccccc12)NC(=O)[C@H]1CSSC[C@@H](NC(=O)[C@@H](CCCCN)NC(=O)[C@H](N)CCCNC(=N)N)C(=O)NCC(=O)N[C@@H](Cc2ccccc2)C(=O)N1)C(C)C)C(=O)O [(103)] (H-[dR][dK][dC]GF[dC][dW][dV][dW][dV]-OH; disulfide 3-6)
- ring closure, yield of all isomers ([1]; from CC(C)[C@@H](NC(=O)[C@@H](Cc1c[nH]c2ccccc12)NC(=O)[C@H](NC(=O)[C@@H](Cc1c[nH]c2ccccc12)NC(=O)[C@@H](CS)NC(=O)[C@H](Cc1ccccc1)NC(=O)CNC(=O)[C@@H](CS)NC(=O)[C@@H](CCCCN)NC(=O)[C@H](N)CCCNC(=N)N)C(C)C)C(=O)O, air, Cu wire, ammonium acetate, 0.605 mM, 22.0 h): 2.7%
- IC50 (P-selectin): 42.7 µM

SMILES: CC(C)[C@@H](NC(=O)[C@@H](Cc1ccccc1)NC(=O)[C@H](NC(=O)[C@@H](Cc1c[nH]c2ccccc12)NC(=O)[C@H]1CSSC[C@@H](NC(=O)[C@@H](CCCCN)NC(=O)[C@H](N)CCCNC(=N)N)C(=O)NCC(=O)N[C@@H](Cc2ccccc2)C(=O)N1)[C@H](C)O)C(N)=O [(79)] (H-[dR][dK][dC]GF[dC][dW][dT][dF][dV]-NH2; disulfide 3-6)
- ring closure, yield of all isomers ([1]; from CC(C)[C@@H](NC(=O)[C@@H](Cc1ccccc1)NC(=O)[C@H](NC(=O)[C@@H](Cc1c[nH]c2ccccc12)NC(=O)[C@@H](CS)NC(=O)[C@H](Cc1ccccc1)NC(=O)CNC(=O)[C@@H](CS)NC(=O)[C@@H](CCCCN)NC(=O)[C@H](N)CCCNC(=N)N)[C@H](C)O)C(N)=O, DMSO, 0.101 mM): 15.2%
- IC50 (P-selectin): 7.7 µM

SMILES: CC(C)[C@@H](NC(=O)[C@@H](Cc1c[nH]c2ccccc12)NC(=O)[C@H](NC(=O)[C@@H](Cc1c[nH]c2ccccc12)NC(=O)[C@H]1CSSC[C@@H](NC(=O)[C@@H](CCCCN)NC(=O)[C@H](N)CCCNC(=N)N)C(=O)N[C@@H](C)C(=O)N[C@@H](Cc2ccccc2)C(=O)N1)[C@H](C)O)C(N)=O [(37)] (H-[dR][dK][dC]AF[dC][dW][dT][dW][dV]-NH2; disulfide 3-6)
- ring closure, yield of all isomers ([1]; from CC(C)[C@@H](NC(=O)[C@@H](Cc1c[nH]c2ccccc12)NC(=O)[C@H](NC(=O)[C@@H](Cc1c[nH]c2ccccc12)NC(=O)[C@@H](CS)NC(=O)[C@H](Cc1ccccc1)NC(=O)[C@H](C)NC(=O)[C@@H](CS)NC(=O)[C@@H](CCCCN)NC(=O)[C@H](N)CCCNC(=N)N)[C@H](C)O)C(N)=O, air/Cu wire, ammonium acetate, 0.731 mM, 22.0 h): 1.3%
- IC50 (P-selectin): 205 µM

SMILES: CC(C)[C@@H](NC(=O)[C@@H](Cc1c[nH]c2ccccc12)NC(=O)[C@H](NC(=O)[C@@H](Cc1c[nH]c2ccccc12)NC(=O)[C@H]1CSSC[C@@H](NC(=O)[C@@H](CCCCN)NC(=O)[C@H](N)CCCNC(=N)N)C(=O)N[C@H](Cc2ccccc2)C(=O)NCC(=O)N1)[C@H](C)O)C(N)=O [(12)] (H-[dR][dK][dC][dF]G[dC][dW][dT][dW][dV]-NH2; disulfide 3-6)
- ring closure, yield of all isomers ([1]; from CC(C)[C@@H](NC(=O)[C@@H](Cc1c[nH]c2ccccc12)NC(=O)[C@H](NC(=O)[C@@H](Cc1c[nH]c2ccccc12)NC(=O)[C@@H](CS)NC(=O)CNC(=O)[C@@H](Cc1ccccc1)NC(=O)[C@@H](CS)NC(=O)[C@@H](CCCCN)NC(=O)[C@H](N)CCCNC(=N)N)[C@H](C)O)C(N)=O, DMSO, 0.255 mM, 16.0 h): 18.7%
- IC50 (P-selectin): 48 µM

SMILES: CC(C)[C@@H](NC(=O)[C@@H](CCCNC(=N)N)NC(=O)[C@H](NC(=O)[C@@H](Cc1c[nH]c2ccccc12)NC(=O)[C@H]1CSSC[C@@H](NC(=O)[C@@H](CCCCN)NC(=O)[C@H](N)CCCNC(=N)N)C(=O)NCC(=O)N[C@@H](Cc2ccccc2)C(=O)N1)[C@H](C)O)C(N)=O [(90)] (H-[dR][dK][dC]GF[dC][dW][dT][dR][dV]-NH2; disulfide 3-6)
- ring closure, yield of all isomers ([1]; from CC(C)[C@@H](NC(=O)[C@@H](CCCNC(=N)N)NC(=O)[C@H](NC(=O)[C@@H](Cc1c[nH]c2ccccc12)NC(=O)[C@@H](CS)NC(=O)[C@H](Cc1ccccc1)NC(=O)CNC(=O)[C@@H](CS)NC(=O)[C@@H](CCCCN)NC(=O)[C@H](N)CCCNC(=N)N)[C@H](C)O)C(N)=O, DMSO, 0.747 mM, 16.0 h): 18.5%
- IC50 (P-selectin): 9.9 µM

SMILES: CC[C@@H](C)[C@H]1NC(=O)[C@H](NC(=O)[C@H](N)CCCNC(=N)N)CSSC[C@H](C(=O)N[C@@H](C(=O)N[C@H](Cc2c[nH]c3ccccc23)C(=O)N[C@@H](C(=O)N[C@H](Cc2c[nH]c3ccccc23)C(=O)N[C@@H](C(N)=O)C(C)C)[C@H](C)O)[C@H](C)CC)NC(=O)CNC1=O [(4)] (H-[dR][dC][dI]G[dC][dI][dW][dT][dW][dV]-NH2; disulfide 2-5)
- ring closure, yield of all isomers ([1]; from CC[C@@H](C)[C@@H](NC(=O)[C@@H](CS)NC(=O)[C@H](N)CCCNC(=N)N)C(=O)NCC(=O)N[C@H](CS)C(=O)N[C@@H](C(=O)N[C@H](Cc1c[nH]c2ccccc12)C(=O)N[C@@H](C(=O)N[C@H](Cc1c[nH]c2ccccc12)C(=O)N[C@@H](C(N)=O)C(C)C)[C@H](C)O)[C@H](C)CC, DMSO, 0.405 mM, 16.0 h): 43.1%
- IC50 (P-selectin): 41 µM

SMILES: CC(C)[C@@H](NC(=O)[C@@H](Cc1c[nH]c2ccccc12)NC(=O)[C@H](NC(=O)[C@@H](Cc1c[nH]c2ccccc12)NC(=O)[C@H]1CSSC[C@@H](NC(=O)[C@@H](CCCCN)NC(=O)[C@H](N)CCCNC(=N)N)C(=O)N[C@@H](Cc2ccccc2)C(=O)NCC(=O)N1)[C@H](C)O)C(N)=O [(18)] (H-[dR][dK][dC]FG[dC][dW][dT][dW][dV]-NH2; disulfide 3-6)
- ring closure, yield of all isomers ([1]; from CC(C)[C@@H](NC(=O)[C@@H](Cc1c[nH]c2ccccc12)NC(=O)[C@H](NC(=O)[C@@H](Cc1c[nH]c2ccccc12)NC(=O)[C@@H](CS)NC(=O)CNC(=O)[C@H](Cc1ccccc1)NC(=O)[C@@H](CS)NC(=O)[C@@H](CCCCN)NC(=O)[C@H](N)CCCNC(=N)N)[C@H](C)O)C(N)=O, DMSO, 0.253 mM): 13.7%
- ring closure, yield of all isomers ([1]; from CC(C)[C@@H](NC(=O)[C@@H](Cc1c[nH]c2ccccc12)NC(=O)[C@H](NC(=O)[C@@H](Cc1c[nH]c2ccccc12)NC(=O)[C@@H](CS)NC(=O)CNC(=O)[C@H](Cc1ccccc1)NC(=O)[C@@H](CS)NC(=O)[C@@H](CCCCN)NC(=O)[C@H](N)CCCNC(=N)N)[C@H](C)O)C(N)=O, DMSO, 0.253 mM, 16.0 h): 13.7%
- IC50 (P-selectin): 49 µM

SMILES: CC(C)[C@@H](NC(=O)[C@@H](Cc1c[nH]c2ccccc12)NC(=O)[C@H](NC(=O)[C@@H](Cc1c[nH]c2ccccc12)NC(=O)[C@H]1CSSC[C@@H](NC(=O)[C@@H](CCCCN)NC(=O)[C@H](N)CCCNC(=N)N)C(=O)NCCC(=O)N[C@@H](Cc2ccccc2)C(=O)N1)[C@H](C)O)C(N)=O
- ring closure, yield of all isomers ([1]; from CC(C)[C@@H](NC(=O)[C@@H](Cc1c[nH]c2ccccc12)NC(=O)[C@H](NC(=O)[C@@H](Cc1c[nH]c2ccccc12)NC(=O)[C@@H](CS)NC(=O)[C@H](Cc1ccccc1)NC(=O)CCNC(=O)[C@@H](CS)NC(=O)[C@@H](CCCCN)NC(=O)[C@H](N)CCCNC(=N)N)[C@H](C)O)C(N)=O, air, Cu wire, ammonium acetate pH 8.5, 0.842 mM, 22.0 h): 8.1%

SMILES: CC(C)[C@@H](NC(=O)[C@@H](Cc1c[nH]c2ccccc12)NC(=O)[C@H](NC(=O)[C@@H](Cc1c[nH]c2ccccc12)NC(=O)[C@H]1CSSC[C@@H](NC(=O)[C@@H](CCCCN)NC(=O)[C@H](N)CCCNC(=N)N)C(=O)NCC(=O)N[C@@H](Cc2ccccc2)C(=O)N1)[C@H](C)O)C(N)=O
- ring closure, yield of all isomers ([1]; from CC(C)[C@@H](NC(=O)[C@@H](Cc1c[nH]c2ccccc12)NC(=O)[C@H](NC(=O)[C@@H](Cc1c[nH]c2ccccc12)NC(=O)[C@@H](CS)NC(=O)[C@H](Cc1ccccc1)NC(=O)CNC(=O)[C@@H](CS)NC(=O)[C@@H](CCCCN)NC(=O)[C@H](N)CCCNC(=N)N)[C@H](C)O)C(N)=O, DMSO, 0.253 mM, 16.0 h): 10.8%
